Measurements from PubChem BioAssay AID248 (DTP/NCI, 2004).
Several values for one entry are separate records, joined by “and”; a condition that tells them apart may be missing. Equal entries are not always repeated. Toxic doses and inconclusive results are not listed.

System: L1210 leukemia ip in BDF1 mice, survival T/C
Test: NCI In Vivo Anticancer Drug Screen. Data for tumor model L1210 Leukemia (intraperitoneal) in B6D2F1 (BDF1) mice
Conditions: endpoint: mean survival time, higher = longer survival
In short: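 Each compound was tested against a transplantable tumor grown in mice. The endpoint was survival, with treated animals benchmarked against vehicle controls as a simple ratio.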

[1] = dose: 100.0 mg/kg/injection, schedule: Q04DX003 (ip), vehicle: Klucel (hydroxypropylcellulose) (HPC)
[2] = dose: 200.0 mg/kg/injection, schedule: Q04DX003 (ip), vehicle: Klucel (hydroxypropylcellulose) (HPC)
[3] = dose: 400.0 mg/kg/injection, schedule: Q04DX003 (ip), vehicle: Klucel (hydroxypropylcellulose) (HPC)
[4] = dose: 75.0 mg/kg/injection, schedule: Q01DX001 (ip), vehicle: saline
[5] = dose: 150.0 mg/kg/injection, schedule: Q01DX001 (ip), vehicle: saline
[6] = dose: 100.0 mg/kg/injection, schedule: Q01DX009 (ip), vehicle: saline
[7] = dose: 200.0 mg/kg/injection, schedule: Q01DX009 (ip), vehicle: saline
[8] = dose: 100.0 mg/kg/injection, schedule: Q01DX009 (ip), vehicle: Klucel (hydroxypropylcellulose) (HPC)
[9] = dose: 200.0 mg/kg/injection, schedule: Q01DX009 (ip), vehicle: Klucel (hydroxypropylcellulose) (HPC)
[10] = dose: 400.0 mg/kg/injection, schedule: Q01DX009 (ip), vehicle: Klucel (hydroxypropylcellulose) (HPC)
[11] = dose: 100.0 mg/kg/injection, schedule: Q01DX009 (ip), vehicle: saline with Tween-80
[12] = dose: 200.0 mg/kg/injection, schedule: Q01DX009 (ip), vehicle: saline with Tween-80
[13] = dose: 100.0 mg/kg/injection, schedule: Q04DX003 (ip), vehicle: saline with Tween-80
[14] = dose: 200.0 mg/kg/injection, schedule: Q04DX003 (ip), vehicle: saline with Tween-80
[15] = dose: 400.0 mg/kg/injection, schedule: Q04DX003 (ip), vehicle: saline with Tween-80
[16] = dose: 25.0 mg/kg/injection, schedule: Q04DX003 (ip), vehicle: saline with Tween-80
[17] = dose: 50.0 mg/kg/injection, schedule: Q01DX009 (ip), vehicle: saline with Tween-80
[18] = dose: 50.0 mg/kg/injection, schedule: Q04DX003 (ip), vehicle: saline with Tween-80

CN(Cc1cnc2nc(N)nc(N)c2n1)c1cc(Cl)c(C(=O)NC(CCC(=O)O)C(=O)O)c(Cl)c1 (stereo not drawn)
T/C (dose: 25.0 mg/kg/injection, schedule: Q01DX009 (ip), vehicle: sodium bicarbonate): 106 % of control
T/C (dose: 50.0 mg/kg/injection, schedule: Q01DX009 (ip), vehicle: sodium bicarbonate): 107 % of control
T/C (dose: 100.0 mg/kg/injection, schedule: Q01DX009 (ip), vehicle: sodium bicarbonate): 622 % of control
T/C (dose: 200.0 mg/kg/injection, schedule: Q01DX009 (ip), vehicle: sodium bicarbonate): 120 % of control

Cc1ccc2c(c1)c(N=NC(N)=S)c(O)n2C1OC(CO)C(O)C(O)C1O (stereo not drawn)
T/C (dose: 50.0 mg/kg/injection, schedule: Q01DX005 (ip), vehicle: saline): 94 % of control
T/C (dose: 100.0 mg/kg/injection, schedule: Q01DX005 (ip), vehicle: saline): 91 % of control
T/C (dose: 200.0 mg/kg/injection, schedule: Q01DX005 (ip), vehicle: saline): 94 % of control

C[S+](C)CC(=O)c1ccc(Br)cc1
T/C [1]: 97 % of control
T/C [2]: 95 % of control
T/C [3]: 101 % of control

CNC(CO)C1CCCCC1 (stereo not drawn)
T/C [4]: 100 % of control
T/C [5]: 102 % of control
T/C (dose: 300.0 mg/kg/injection, schedule: Q01DX001 (ip), vehicle: saline): 101 % of control

COc1ccc(C(=O)N/N=C/c2cccc([N+](=O)[O-])c2)cc1
T/C (dose: 100.0 mg/kg/injection, schedule: Q01DX001 (ip), vehicle: carboxymethylcellulose (CMC)): 98 % of control
T/C (dose: 100.0 mg/kg/injection, schedule: Q01DX009 (ip), vehicle: carboxymethylcellulose (CMC)): 90 % of control and 92 % of control
T/C (dose: 100.0 mg/kg/injection, schedule: Q04DX002 (ip), vehicle: other): 98 % of control
T/C (dose: 100.0 mg/kg/injection, schedule: Q04DX003 (ip), vehicle: carboxymethylcellulose (CMC)): 98 % of control
T/C (dose: 200.0 mg/kg/injection, schedule: Q01DX001 (ip), vehicle: carboxymethylcellulose (CMC)): 97 % of control
T/C (dose: 200.0 mg/kg/injection, schedule: Q01DX009 (ip), vehicle: carboxymethylcellulose (CMC)): 101 % of control and 90 % of control
T/C (dose: 200.0 mg/kg/injection, schedule: Q04DX002 (ip), vehicle: other): 95 % of control
T/C (dose: 200.0 mg/kg/injection, schedule: Q04DX003 (ip), vehicle: carboxymethylcellulose (CMC)): 98 % of control
T/C (dose: 400.0 mg/kg/injection, schedule: Q01DX001 (ip), vehicle: carboxymethylcellulose (CMC)): 93 % of control
T/C (dose: 400.0 mg/kg/injection, schedule: Q01DX009 (ip), vehicle: carboxymethylcellulose (CMC)): 95 % of control and 96 % of control
T/C (dose: 400.0 mg/kg/injection, schedule: Q04DX002 (ip), vehicle: other): 95 % of control
T/C (dose: 400.0 mg/kg/injection, schedule: Q04DX003 (ip), vehicle: carboxymethylcellulose (CMC)): 102 % of control

O=C(O)c1cccc2c1-c1ccc(Cl)cc1C2
T/C [1]: 104 % of control
T/C [2]: 102 % of control

[NH-]C(CC(N)=O)C(=O)O.[NH-]C(CC(N)=O)C(=O)O.[Zn+2] (stereo not drawn)
T/C (dose: 25.0 mg/kg/injection, schedule: Q04DX002 (ip), vehicle: saline): 92 % of control
T/C (dose: 50.0 mg/kg/injection, schedule: Q04DX002 (ip), vehicle: saline): 116 % of control

C=CCOCC(O)CO (stereo not drawn)
T/C [6]: 108 % of control
T/C [7]: 94 % of control
T/C (dose: 400.0 mg/kg/injection, schedule: Q01DX009 (ip), vehicle: saline): 103 % of control

Cc1cc(C)c(S(=O)(=O)Nc2cc([N+](=O)[O-])ccc2C)c(C)c1
T/C [8]: 97 % of control
T/C [9]: 92 % of control
T/C [10]: 92 % of control

Nc1cc(NC(c2ccccc2)c2ccccc2)c([N+](=O)[O-])c(N)n1
T/C (dose: 100.0 mg/kg/injection, schedule: Q01DX001 (ip), vehicle: saline with Tween-80): 98 % of control
T/C (dose: 200.0 mg/kg/injection, schedule: Q01DX001 (ip), vehicle: saline with Tween-80): 98 % of control
T/C (dose: 400.0 mg/kg/injection, schedule: Q01DX001 (ip), vehicle: saline with Tween-80): 93 % of control

O=C(CN(Cc1ccccc1)Cc1ccccc1)c1ccccc1
T/C (dose: 100.0 mg/kg/injection, schedule: Q04DX003 (ip), vehicle: DMSO): 103 % of control

CC(C)(C)C1(C)CC1(Br)Br (stereo not drawn)
T/C (dose: 50.0 mg/kg/injection, schedule: Q01DX009 (ip), vehicle: saline): 98 % of control
T/C [6]: 101 % of control
T/C [7]: 98 % of control

Cc1cccc(C)c1NC(=S)N1CCC(CCCC2CCN(C(=S)Nc3c(C)cccc3C)CC2)CC1
T/C [11]: 93 % of control and 98 % of control
T/C [12]: 95 % of control and 105 % of control
T/C (dose: 400.0 mg/kg/injection, schedule: Q01DX009 (ip), vehicle: saline with Tween-80): 93 % of control and 98 % of control

CCNC(=O)CS(=O)(=O)c1ccc(C)cc1
T/C [13]: 101 % of control
T/C [14]: 94 % of control
T/C [15]: 97 % of control

CC(=O)Nc1ccccc1C#N
T/C (dose: 100.0 mg/kg/injection, schedule: Q04DX003 (ip), vehicle: saline sonified): 104 % of control
T/C (dose: 200.0 mg/kg/injection, schedule: Q04DX003 (ip), vehicle: saline sonified): 101 % of control
T/C (dose: 400.0 mg/kg/injection, schedule: Q04DX003 (ip), vehicle: saline sonified): 97 % of control

CSc1ccc(OC2CCCCC2OS(C)(=O)=O)cc1 (stereo not drawn)
T/C (dose: 100.0 mg/kg/injection, schedule: Q01DX001 (ip), vehicle: Klucel (hydroxypropylcellulose) (HPC)): 102 % of control
T/C [8]: 98 % of control
T/C [1]: 107 % of control
T/C (dose: 200.0 mg/kg/injection, schedule: Q01DX001 (ip), vehicle: Klucel (hydroxypropylcellulose) (HPC)): 102 % of control
T/C [9]: 98 % of control
T/C [2]: 91 % of control
T/C (dose: 400.0 mg/kg/injection, schedule: Q01DX001 (ip), vehicle: Klucel (hydroxypropylcellulose) (HPC)): 94 % of control
T/C [10]: 96 % of control
T/C [3]: 96 % of control

O=C1/C(=C\c2cccc3ccccc23)CS(=O)(=O)C/C1=C/c1cccc2ccccc12
T/C (dose: 100.0 mg/kg/injection, schedule: Q01DX001 (ip), vehicle: saline): 95 % of control
T/C (dose: 200.0 mg/kg/injection, schedule: Q01DX001 (ip), vehicle: saline): 94 % of control
T/C (dose: 400.0 mg/kg/injection, schedule: Q01DX001 (ip), vehicle: saline): 94 % of control

O=C(ON(Cc1ccccc1)Cc1ccccc1)c1ccccc1
T/C (dose: 100.0 mg/kg/injection, schedule: Q01DX001 (ip), vehicle: other): 103 % of control
T/C (dose: 200.0 mg/kg/injection, schedule: Q01DX001 (ip), vehicle: other): 100 % of control
T/C (dose: 400.0 mg/kg/injection, schedule: Q01DX001 (ip), vehicle: other): 103 % of control

Cc1cc(N(C)C)cc(C)c1N=Nc1cc[n+]([O-])cc1
T/C (dose: 12.5 mg/kg/injection, schedule: Q04DX003 (ip), vehicle: saline with Tween-80): 98 % of control
T/C [16]: 98 % of control
T/C [17]: 95 % of control
T/C [18]: 100 % of control
T/C [11]: 91 % of control
T/C [12]: 91 % of control

Cc1ncc(CO)c(CO)c1O
T/C (dose: 100.0 mg/kg/injection, schedule: Q04DX003 (ip), vehicle: saline): 101 % of control
T/C (dose: 200.0 mg/kg/injection, schedule: Q04DX003 (ip), vehicle: saline): 100 % of control
T/C (dose: 400.0 mg/kg/injection, schedule: Q04DX003 (ip), vehicle: saline): 96 % of control

NS(=O)(=O)c1ccc(S(=O)(=O)N2CCCCC2)cc1
T/C [8]: 90 % of control
T/C [9]: 96 % of control

O=C1c2ccccc2C(=O)N1Cc1ccccc1
T/C [13]: 92 % of control
T/C [14]: 100 % of control
T/C [15]: 96 % of control

OC1C2CCN(CC2)C1C(c1ccccc1)c1ccccc1 (stereo not drawn)
T/C [16]: 95 % of control
T/C [18]: 98 % of control
T/C [13]: 96 % of control and 87 % of control

CCCCCOc1ccc(C(=O)/C(Br)=C/C(=O)O)cc1
T/C (dose: 12.5 mg/kg/injection, schedule: Q01DX009 (ip), vehicle: saline with Tween-80): 98 % of control
T/C (dose: 25.0 mg/kg/injection, schedule: Q01DX009 (ip), vehicle: saline with Tween-80): 96 % of control
T/C [17]: 101 % of control

OC12CC[N+](Cc3ccccc3)(CC1)CC2
T/C [4]: 104 % of control
T/C [5]: 100 % of control
